pIC50: −log10 of the molar value.
test system: A. baumannii strain ATCC17978; assay: 50% growth inhibitory concentration (IC50) determination, Iso-Sensitest broth; type: cell-based; conditions: Acinetobacter baumannii, ATCC17978, 16 h, read-out: IC50 ATCC17978
Description: The in vitro antimicrobial activity of the compounds was alternatively determined according to the following procedure:
The assay used a 10-points Iso-Sensitest broth medium to measure quantitatively the in vitro activity of the compounds against A. baumannii ATCC 17978.
Stock compounds in DMSO were serially twofold diluted (e.g. range from 50 to 0.097 μM final concentration) in 384 wells microtiter plates and inoculated with 49 μl the bacterial suspension in Iso-Sensitest medium to have a final cell concentration of ˜5×10^(5) CFU/ml in a final volume/well of 50 ul/well. Microtiter plates were incubated at 35±2° C.
Bacterial cell growth was determined with the measurement of optical density at λ=600 nm each 20 minutes over a time course of 16 h.
Growth inhibition was calculated during the logarithmic growth of the bacterial cells with determination of the concentration inhibiting 50% (IC50) and 90% (IC90) of the growth.
Tables 3, 4 and 5 provide the 50% growth inhibitory concentrations (IC50) in micromoles per liter of the compounds of present invention obtained against the A. baumannii strain ATCC17978.

SMILES | pIC50
CN1C(=O)[C@H](CCCCN)NC(=O)[C@H](CCCN)NCc2cccnc2Sc2c(Cl)ccc(-c3ccc(C(=O)O)cc3)c2CNC(=O)[C@@H]1Cc1c[nH]c2ccccc12 [Example 239, 4-[(11S,14S,17S)-14-(4-Amino-butyl)-11-(3-amino-propyl)-25-chloro-17-(1H-indol-3-ylmethyl)-16-methyl-12,15,18-trioxo-2-thia-4,10,13,16,19-pentaaza-tricyclo[19.4.0.0*3,8*]pentacosa-1 (25),3(8),4,6,21,23-hexaen-22-yl]-benzoic acid] | > 6.00

same assay, conditions: Acinetobacter baumannii; A. baumannii ATCC17978; Iso-Sensitest medium; OD 600 nm over 16 h; read-out: IC50 ATCC17978

SMILES | pIC50
Cc1cc(-c2ccc3c(n2)CNC(=O)[C@H](Cc2c[nH]c4ccccc24)N(C)C(=O)[C@H](CCCCN)NC(=O)[C@H](CCCN)NCc2cccnc2S3)ccn1 [Example 215, (7S,10S,13S)-13-((1H-Indol-3-yl)methyl)-10-(4-aminobutyl)-7-(3-aminopropyl)-12-methyl-18-(2-methylpyridin-4-yl)-6,7,9,10,12,13,15,16-octahydrodipyrido[2,3-b:2′,3′-p][1,5,8,11,14]thiatetraazacycloheptadecine-8,11,14(5H)-trione] | 5.70
CN1C(=O)[C@H](CCCCN)NC(=O)[C@H](CCCN)NCc2cc(-c3ccc(CN)cc3)ccc2Sc2c(Cl)cccc2CNC(=O)[C@@H]1Cc1c[nH]c2ccccc12 [Example 216, (12S,15S,18S)-15-(4-Amino-butyl)-23-(4-aminomethyl-phenyl)-18-(3-amino-propyl)-4-chloro-12-(1H-indol-3-ylmethyl)-13-methyl-2-thia-10,13,16,19-tetraaza-tricyclo[19.4.0.0*3,8*]pentacosa-1(25),3,5,7,21,23-hexaene-11,14,17-trione] | 6.15
COc1cc(-c2ccc3c(n2)CNC(=O)[C@H](Cc2c[nH]c4ccccc24)N(C)C(=O)[C@H](CCCCN)NC(=O)[C@H](CCCN)NCc2cccnc2S3)ccn1 [Example 217, (7S,10S,13S)-13-((1H-Indol-3-yl)methyl)-10-(4-aminobutyl)-7-(3-aminopropyl)-18-(2-methoxypyridin-4-yl)-12-methyl-6,7,9,10,12,13,15,16-octahydrodipyrido[2,3-b:2′,3′-p][1,5,8,11,14]thiatetraazacycloheptadecine-8,11,14(5H)-trione] | 6.00
CN1C(=O)[C@H](CCCCN)NC(=O)[C@H](CCCN)NCc2cccnc2Sc2ccc(N3CCOCC3)nc2CNC(=O)[C@@H]1Cc1c[nH]c2ccccc12 [Example 218, (7S,10S,13S)-13-((1H-Indol-3-yl)methyl)-10-(4-aminobutyl)-7-(3-aminopropyl)-12-methyl-18-morpholino-6,7,9,10,12,13,15,16-octahydrodipyrido[2,3-b:2′,3′-p][1,5,8,11,14]thiatetraazacycloheptadecine-8,11,14(5H)-trione] | 5.70
CN1C(=O)[C@H](CCCCN)NC(=O)[C@H](CCCN)NCc2ccc(Br)cc2Sc2c(Cl)cccc2CNC(=O)[C@@H]1Cc1c[nH]c2ccccc12 [Example 219, (12S,15S,18S)-15-(4-Amino-butyl)-18-(3-amino-propyl)-24-bromo-4-chloro-12-(1H-indol-3-ylmethyl)-13-methyl-2-thia-10,13,16,19-tetraaza-tricyclo[19.4.0.0*3,8*]pentacosa-1(25),3,5,7,21,23-hexaene-11,14,17-trione] | 6.22
CN1C(=O)[C@H](CCCCN)NC(=O)[C@H](CCCN)NCc2ccc(-c3ccccc3)cc2Sc2c(Cl)cccc2CNC(=O)[C@@H]1Cc1c[nH]c2ccccc12 [Example 220, (12S,15S,18S)-15-(4-Amino-butyl)-18-(3-amino-propyl)-4-chloro-12-(1H-indol-3-ylmethyl)-13-methyl-24-phenyl-2-thia-10,13,16,19-tetraaza-tricyclo[19.4.0.0*3,8*]pentacosa-1(25),3,5,7,21,23-hexaene-11,14,17-trione] | 5.24
CN1C(=O)[C@H](CCCCN)NC(=O)[C@H](CCCN)NCc2cc(Br)cnc2Sc2ccccc2CNC(=O)[C@@H]1Cc1c[nH]c2ccccc12 [Example 236, (7S,10S,13S)-13-((1H-Indol-3-yl)methyl)-10-(4-aminobutyl)-7-(3-aminopropyl)-3-bromo-12-methyl-6,7,9,10,12,13,15,16-octahydrobenzo[b]pyrido[3,2-p][1,5,8,11,14]thiatetraazacycloheptadecine-8,11,14(5H)-trione] | 5.49
CN(C)c1nccc2c1CNC(=O)[C@H](Cc1c[nH]c3ccccc13)N(C)C(=O)[C@H](CCCCN)NC(=O)[C@H](CCCN)NCc1cccnc1S2 [Example 237, (7S,10S,13S)-13-((1H-Indol-3-yl)methyl)-10-(4-aminobutyl)-7-(3-aminopropyl)-17-(dimethylamino)-12-methyl-6,7,9,10,12,13,15,16-octahydrodipyrido [2,3-b:3′,4′-p][1,5,8,11,14]thiatetraazacycloheptadecine-8,11,14(5H)-trione] | 6.10
CN1C(=O)[C@H](CCCCN)NC(=O)[C@H](CCCN)NCc2cccnc2Sc2ccnc(-c3cccnc3)c2CNC(=O)[C@@H]1Cc1c[nH]c2ccccc12 [Example 238, (7S,10S,13S)-13-((1H-Indol-3-yl)methyl)-10-(4-aminobutyl)-7-(3-aminopropyl)-12-methyl-17-(pyridin-3-yl)-6,7,9,10,12,13,15,16-octahydrodipyrido[2,3-b:3′,4′-p][1,5,8,11,14]thiatetraazacycloheptadecine-8,11,14(5H)-trione] | 5.25
CN1C(=O)[C@H](CCCCN)NC(=O)[C@H](CCCN)NCc2cccnc2Sc2c(Cl)ccc(-c3ccc(OCC(O)CO)cc3)c2CNC(=O)[C@@H]1Cc1c[nH]c2ccccc12 (stereo partly drawn) [Example 240, (11S,14S,17S)-14-(4-Amino-butyl)-11-(3-amino-propyl)-25-chloro-22-[4-(2,3-dihydroxy-propoxy)-phenyl]-17-(1H-indol-3-ylmethyl)-16-methyl-2-thia-4,10,13,16,19-pentaaza-tricyclo[19.4.0.0*3,8*]pentacosa-1(25),3(8),4,6,21,23-hexaene-12,15,18-trione] | > 7.00
CN1C(=O)[C@H](CCCCN)NC(=O)[C@H](CCCN)NCc2cccnc2Sc2c(Cl)ccc(-c3ccc(OCC(=O)O)cc3)c2CNC(=O)[C@@H]1Cc1c[nH]c2ccccc12 [Example 241, {4-[(11S,14S,17S)-14-(4-Amino-butyl)-11-(3-amino-propyl)-25-chloro-17-(1H-indol-3-ylmethyl)-16-methyl-12,15,18-trioxo-2-thia-4,10,13,16,19-pentaaza-tricyclo[19.4.0.0*3,8*]pentacosa-1(25),3(8),4,6,21,23-hexaen-22-yl]-phenoxy}-acetic acid] | > 6.70
CN1C(=O)[C@H](CCCCN)NC(=O)[C@H](CCCN)NCc2cccnc2Sc2c(Cl)ccc(-c3ccc(OC4CCNCC4)cc3)c2CNC(=O)[C@@H]1Cc1c[nH]c2ccccc12 [Example 242, (11S,14S,17S)-14-(4-Amino-butyl)-11-(3-amino-propyl)-25-chloro-17-(1H-indol-3-ylmethyl)-16-methyl-22-[4-(piperidin-4-yloxy)-phenyl]-2-thia-4,10,13,16,19-pentaaza-tricyclo[19.4.0.0*3,8*]pentacosa-1(25),3(8),4,6,21,23-hexaene-12,15,18-trione] | > 6.70
CN1C(=O)[C@H](CCCCN)NC(=O)[C@H](CCCN)NCc2cccnc2Sc2c(Cl)ccc(-c3ccc(CN)cc3)c2CNC(=O)[C@@H]1Cc1c[nH]c2ccccc12 [Example 243, (11S,14S,17S)-14-(4-Amino-butyl)-22-(4-aminomethyl-phenyl)-11-(3-amino-propyl)-25-chloro-17-(1H-indol-3-ylmethyl)-16-methyl-2-thia-4,10,13,16,19-pentaaza-tricyclo[19.4.0.0*3,8*]pentacosa-1(25),3(8),4,6,21,23-hexaene-12,15,18-trione] | > 7.00
CN1C(=O)[C@H](CCCCN)NC(=O)[C@H](CCCN)NCc2cccnc2Sc2c(Cl)ccc(-c3cccc(CCN)c3)c2CNC(=O)[C@@H]1Cc1c[nH]c2ccccc12 [Example 244, (11S,14S,17S)-14-(4-Amino-butyl)-22-[3-(2-amino-ethyl)-phenyl]-11-(3-amino-propyl)-25-chloro-17-(1H-indol-3-ylmethyl)-16-methyl-2-thia-4,10,13,16,19-pentaaza-tricyclo[19.4.0.0*3,8*]pentacosa-1(25),3(8),4,6,21,23-hexaene-12,15,18-trione] | > 6.40
CN1C(=O)[C@H](CCCCN)NC(=O)[C@H](CCCN)NCc2cccnc2Sc2c(Cl)ccc(-c3ccc(N4CCNCC4)cc3)c2CNC(=O)[C@@H]1Cc1c[nH]c2ccccc12 [Example 245, (11S,14S,17S)-14-(4-Amino-butyl)-11-(3-amino-propyl)-25-chloro-17-(1H-indol-3-ylmethyl)-16-methyl-22-(4-piperazin-1-yl-phenyl)-2-thia-4,10,13,16,19-pentaaza-tricyclo[19.4.0.0*3,8*]pentacosa-1(25),3(8),4,6,21,2-hexaene-12,15,18-trione] | > 7.00
CN1C(=O)[C@H](CCCCN)NC(=O)[C@H](CCCN)NCc2cccnc2Sc2c(Cl)ccc(-c3ccc(S(=O)(=O)NCCO)cc3)c2CNC(=O)[C@@H]1Cc1c[nH]c2ccccc12 [Example 246, 4-[(11S,14S,17S)-14-(4-Amino-butyl)-11-(3-amino-propyl)-25-chloro-17-(1H-indol-3-ylmethyl)-16-methyl-12,15,18-trioxo-2-thia-4,10,13,16,19-pentaaza-tricyclo[19.4.0.0*3,8*]pentacosa-1(25),3(8),4,6,21,23-hexaen-22-yl]-N-(2-hydroxy-ethyl)-benzenesulfonamide] | > 7.00

From US10030047B2 (Hoffmann-La Roche Inc., priority 2015, dated 2018)
